Data taken from US9850257B2, “Tricyclic heterocycles as BET protein inhibitors” (Incyte Corporation, priority 2013, dated 2017).
pIC50: −log10 of the molar value. Where a name gives a salt, the structure may show the parent alone.

How the values were obtained:
BRD4-BD1 = BRD4-BD1 (Homo sapiens (Human), UniProt O60885); assay: BRD4 AlphaScreen assay (BD1); format: binding; settings: biotin-labeled tetra-acetylated histone H4 peptide, 3.8 nM BRD4-BD1, read-out: BRD4 BD-1 enzyme IC50
Protocol: (§1) BRD4-BD1 and BRD4-BD2 assays were conducted in white 384-well polystyrene plate in a final volume of 20 μL for BD1 and 40 μL for BD2. Inhibitors were first serially diluted in DMSO and added to the plate wells before the addition of other reaction components. The final concentration of DMSO in the assay was 1.25% (BD1) and 0.83% (BD2). The assays were carried out at room temperature for 75 min. in the assay buffer (50 mM HEPES, pH 7.4, 100 mM NaCl, 0.05% CHAPS, 0.01% BSA), containing 50 nM Biotin-labeled tetra-acetylated histone H4 peptide (H4Ac4), 3.8 nM (BRD4-BD1, BPS Bioscience #31040) or 20 nM (BRD4-BD2, BPS Bioscience #31041). The reaction followed by the addition of 20 μL of assay buffer supplemented with Streptavidin donor beads (PerkinElmer 6760002) and GSH Acceptor beads (PerkinElmer-AL109C) at 4 jag/mL under reduced light. After plate sealing, the plate was incubated in the dark at room temperature for 75 min. before reading on a PHERAstar FS plate reader (BMG Labtech). IC50 determination was performed by fitting the curve of percent control activity versus the log of the inhibitor concentration using the GraphPad Prism 5.0 software.

BRD4-BD2 = BRD4-BD2 (Homo sapiens (Human), UniProt O60885); assay: BRD4 AlphaScreen assay (BD2); format: binding; settings: biotin-labeled tetra-acetylated histone H4 peptide, 20 nM BRD4-BD2, read-out: BRD4 BD-2 enzyme IC50
Protocol: as §1

[1] = system: KMS.12.BM cell line (human myeloma); assay: KMS.12.BM cell viability assay; format: cell-based; settings: 72 h, KMS.12.BM cells, 3 days, Cell Titer-GLO ATP quantitation, read-out: KMS cellular IC50
Protocol: KMS.12.BM Cell Viability Assay
KMS.12.BM cell line (human myeloma) was purchased from JCRB (Osaka, Japan) and maintained in RPMI with 10% FBS culture medium. To measure the cytotoxic activity of the compounds through ATP quantitation, the KMS. 12.BM cells are plated in the RPMI culture medium at 5000 cells/well/per 100 μL into a 96-well polystyrene clear black tissue culture plate (Greiner-bio-one through VWR, NJ), in the presence or absence of a concentration range of test compounds. After 3 days, […] Cell Titer-GLO Luminescent (Promega, Madison, Wis.) cell culture agent is added to each well for 10 minutes at room temperature to stabilize the luminescent signal. This determines the number of viable cells in culture based on quantitation of the ATP present, which signals the presence of metabolically active cells. Luminescence is measured with the Top Count 384 (Packard Bioscience through Perkin Elmer, Boston, Mass.). Compound inhibition is determined relative to cells cultured with no drug and the IC50 reported as the compound concentration required for 50% cell death.

| SMILES | pIC50 (BRD4-BD1) | pIC50 (BRD4-BD2) | pIC50 [1] |
| --- | --- | --- | --- |
| Cc1noc(C)c1-c1cc(F)c2nnn3c2c1OCC3c1cccnc1 (centres unmarked) [Example 13, 7-(3,5-Dimethylisoxazol-4-yl)-9-fluoro-4-pyridin-3-yl-4,5-dihydro[1,2,3]triazolo[1,5,4-de][1,4]benzoxazine trifluoroacetate] | < 6.00 | 6.00 to 6.70 | – |
| Cc1noc(C)c1-c1cc(Br)c2cnn3c2c1OCC3c1ccccc1 (centres unmarked) [Example 9, 7-Bromo-9-(3,5-dimethylisoxazol-4-yl)-3-phenyl-2,3-dihydro[1,4]oxazino[2,3,4-hi]indazole] | 6.00 to 6.70 | ≥ 6.70 | 5.00 to 6.00 |
| Cc1noc(C)c1-c1ccc2c(=O)n(C)n3c2c1OCC3c1ccccc1 (centres unmarked) [Example 2, 9-(3,5-Dimethylisoxazol-4-yl)-5-methyl-3-phenyl-2,3-dihydro[1,4]oxazino[2,3,4-hi]indazol-6(5H)-one] | ≥ 6.70 | ≥ 6.70 | ≥ 6.00 |
| COc1nn2c3c(c(-c4c(C)noc4C)ccc13)OCC2c1cccnc1 (centres unmarked) [Example 12, 9-(3,5-Dimethylisoxazol-4-yl)-6-methoxy-3-pyridin-3-yl-2,3-dihydro[1,4]oxazino[2,3,4-hi]indazole] | ≥ 6.70 | ≥ 6.70 | ≥ 6.00 |
| Cc1noc(C)c1-c1ccc2c(=O)n(C)n3c2c1OCC3c1ccccn1 (centres unmarked) [Example 6, 9-(3,5-Dimethylisoxazol-4-yl)-5-methyl-3-pyridin-2-yl-2,3-dihydro[1,4]oxazino[2,3,4-hi]indazol-6(5H)-one] | ≥ 6.70 | ≥ 6.70 | ≥ 6.00 |
| Cc1noc(C)c1-c1ccc2cnn3c2c1OCC3c1ccccn1 (centres unmarked) [Example 8, 9-(3,5-Dimethylisoxazol-4-yl)-3-pyridin-2-yl-2,3-dihydro[1,4]oxazino[2,3,4-hi]indazole trifluoroacetate] | ≥ 6.70 | ≥ 6.70 | ≥ 6.00 |
| Cc1noc(C)c1-c1ccc2c(=O)[nH]n3c2c1OCC3c1cccnc1 (centres unmarked) [Example 10, 9-(3,5-Dimethylisoxazol-4-yl)-3-pyridin-3-yl-2,3-dihydro[1,4]oxazino[2,3,4-hi]indazol-6(5H)-one] | 6.00 to 6.70 | ≥ 6.70 | 5.00 to 6.00 |
| Cc1noc(C)c1-c1ccc2c(=O)[nH]n3c2c1OCC3c1ccccn1 (centres unmarked) [Example 5, 9-(3,5-Dimethylisoxazol-4-yl)-3-pyridin-2-yl-2,3-dihydro[1,4]oxazino[2,3,4-hi]indazol-6(5H)-one] | 6.00 to 6.70 | ≥ 6.70 | ≥ 6.00 |
| Cc1noc(C)c1-c1ccc2cnn3c2c1OCC3c1ccccc1 (centres unmarked) [Example 4, 9-(3,5-Dimethylisoxazol-4-yl)-3-phenyl-2,3-dihydro[1,4]oxazino[2,3,4-hi]indazole] | ≥ 6.70 | ≥ 6.70 | ≥ 6.00 |
| Cc1noc(C)c1-c1ccc2c(=O)[nH]n3c2c1OCC3c1ccccc1 (centres unmarked) [Example 1, 9-(3,5-Dimethylisoxazol-4-yl)-3-phenyl-2,3-dihydro[1,4]oxazino[2,3,4-hi]indazol-6(5H)-one] | ≥ 6.70 | ≥ 6.70 | ≥ 6.00 |
| Cc1noc(C)c1-c1ccc2c(=O)n(C)n3c2c1OCC3c1cccnc1 (centres unmarked) [Example 11, 9-(3,5-Dimethylisoxazol-4-yl)-5-methyl-3-pyridin-3-yl-2,3-dihydro[1,4]oxazino[2,3,4-hi]indazol-6(5H)-one] | ≥ 6.70 | ≥ 6.70 | ≥ 6.00 |
| COc1nn2c3c(c(-c4c(C)noc4C)ccc13)OCC2c1ccccc1 (centres unmarked) [Example 3, 9-(3,5-Dimethylisoxazol-4-yl)-6-methoxy-3-phenyl-2,3-dihydro[1,4]oxazino[2,3,4-hi]indazole] | ≥ 6.70 | ≥ 6.70 | ≥ 6.00 |
| COc1nn2c3c(c(-c4c(C)noc4C)ccc13)OCC2c1ccccn1 (centres unmarked) [Example 7, 9-(3,5-Dimethylisoxazol-4-yl)-6-methoxy-3-pyridin-2-yl-2,3-dihydro[1,4]oxazino[2,3,4-hi]indazole] | ≥ 6.70 | ≥ 6.70 | ≥ 6.00 |
